Assay results reported in the supplement of paper PMC10307832.

What was measured:
Assay in all cases: relative viability (nuclei count vs DMSO), 5 days (fraction); higher = more cells survive
COR-L23 = tested on: COR-L23
Procedure, shortened: (§1)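 Relative viability is defined as nuclei in treated wells over nuclei in vehicle wells. Duplicate plates were run and medians reported. Lung cancer cell lines in 1536-well plates were dosed by pin tool one day after seeding, with one drug or with a fixed anchor-drug dose plus five library-drug doses (not always all listed) in √10 steps, and nuclei were counted after 5 days.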

ChaGo-K-1 = tested on: ChaGo-K-1
Procedure, shortened: as §1

EMC-BAC-2 = tested on: EMC-BAC-2
Procedure, shortened: as §1

EPLC-272H = tested on: EPLC-272H
Procedure, shortened: as §1

H3255 = tested on: H3255
Procedure, shortened: as §1

HCC-44 = tested on: HCC-44
Procedure, shortened: as §1

HCC-827 = tested on: HCC-827
Procedure, shortened: as §1

LU99A = tested on: LU99A
Procedure, shortened: as §1

NCI-H1395 = tested on: NCI-H1395
Procedure, shortened: as §1

NCI-H1651 = tested on: NCI-H1651
Procedure, shortened: as §1

NCI-H1793 = tested on: NCI-H1793
Procedure, shortened: as §1

NCI-H1944 = tested on: NCI-H1944
Procedure, shortened: as §1

NCI-H2023 = tested on: NCI-H2023
Procedure, shortened: as §1

NCI-H2085 = tested on: NCI-H2085
Procedure, shortened: as §1

NCI-H2087 = tested on: NCI-H2087
Procedure, shortened: as §1

NCI-H2405 = tested on: NCI-H2405
Procedure, shortened: as §1

NCI-H520 = tested on: NCI-H520
Procedure, shortened: as §1

NCI-H838 = tested on: NCI-H838
Procedure, shortened: as §1

SK-MES-1 = tested on: SK-MES-1
Procedure, shortened: as §1

## CCN(CC)CCCCNc1ncc2cc(-c3cc(OC)cc(OC)c3)c(NC(=O)NC(C)(C)C)nc2n1 + CC1(C)CCC(c2ccc(Cl)cc2)=C(CN2CCN(c3ccc(C(=O)NS(=O)(=O)c4ccc(N[C@H](CCN5CCOCC5)CSc5ccccc5)c(S(=O)(=O)C(F)(F)F)c4)cc3)CC2)C1 [Navitoclax] (partner 0.5 µM)
COR-L23; first compound 0.01 µM
  relative viability: 1.14
COR-L23; first compound 0.03162 µM
  relative viability: 1.12
COR-L23; first compound 0.1 µM
  relative viability: 1.33
COR-L23; first compound 0.3162 µM
  relative viability: 1.18
COR-L23; first compound 1 µM
  relative viability: 1.12
ChaGo-K-1; first compound 0.01 µM
  relative viability: 0.844
ChaGo-K-1; first compound 0.03162 µM
  relative viability: 0.893
ChaGo-K-1; first compound 0.1 µM
  relative viability: 1.49
ChaGo-K-1; first compound 0.3162 µM
  relative viability: 1.16
ChaGo-K-1; first compound 1 µM
  relative viability: 0.716
EMC-BAC-2; first compound 0.01 µM
  relative viability: 1.38
EMC-BAC-2; first compound 0.03162 µM
  relative viability: 1.24
EMC-BAC-2; first compound 0.1 µM
  relative viability: 1.24
EMC-BAC-2; first compound 0.3162 µM
  relative viability: 1.28
EMC-BAC-2; first compound 1 µM
  relative viability: 0.899
EPLC-272H; first compound 0.01 µM
  relative viability: 1.14
EPLC-272H; first compound 0.1 µM
  relative viability: 1.07
EPLC-272H; first compound 0.3162 µM
  relative viability: 1.29
EPLC-272H; first compound 1 µM
  relative viability: 0.995
H3255; first compound 0.01 µM
  relative viability: 0.496
H3255; first compound 0.03162 µM
  relative viability: 0.413
H3255; first compound 0.1 µM
  relative viability: 0.65
H3255; first compound 0.3162 µM
  relative viability: 0.729
H3255; first compound 1 µM
  relative viability: 0.502
HCC-44; first compound 0.01 µM
  relative viability: 1.01
HCC-44; first compound 0.03162 µM
  relative viability: 0.997
HCC-44; first compound 0.1 µM
  relative viability: 1.02
HCC-44; first compound 0.3162 µM
  relative viability: 1.1
HCC-44; first compound 1 µM
  relative viability: 0.937
HCC-827; first compound 0.01 µM
  relative viability: 1.06
HCC-827; first compound 0.03162 µM
  relative viability: 0.981
HCC-827; first compound 0.1 µM
  relative viability: 1.05
HCC-827; first compound 0.3162 µM
  relative viability: 0.993
HCC-827; first compound 1 µM
  relative viability: 1.02
LU99A; first compound 0.01 µM
  relative viability: 0.716
LU99A; first compound 0.03162 µM
  relative viability: 0.862
LU99A; first compound 0.1 µM
  relative viability: 0.949
LU99A; first compound 0.3162 µM
  relative viability: 0.85
LU99A; first compound 1 µM
  relative viability: 0.69
NCI-H1395; first compound 0.03162 µM
  relative viability: 1.1
NCI-H1395; first compound 0.1 µM
  relative viability: 1.09
NCI-H1395; first compound 0.3162 µM
  relative viability: 1.17
NCI-H1395; first compound 1 µM
  relative viability: 0.751
NCI-H1651; first compound 0.01 µM
  relative viability: 0.983
NCI-H1651; first compound 0.03162 µM
  relative viability: 1.09
NCI-H1651; first compound 0.1 µM
  relative viability: 1.25
NCI-H1651; first compound 0.3162 µM
  relative viability: 1.23
NCI-H1651; first compound 1 µM
  relative viability: 1.03
NCI-H1793; first compound 0.01 µM
  relative viability: 0.988
NCI-H1793; first compound 0.1 µM
  relative viability: 0.326
NCI-H1793; first compound 0.3162 µM
  relative viability: 0.439
NCI-H1793; first compound 1 µM
  relative viability: 0.326
NCI-H1944; first compound 0.01 µM
  relative viability: 1.18
NCI-H1944; first compound 0.03162 µM
  relative viability: 1.02
NCI-H1944; first compound 0.1 µM
  relative viability: 1.08
NCI-H1944; first compound 0.3162 µM
  relative viability: 1.09
NCI-H1944; first compound 1 µM
  relative viability: 1.02
NCI-H2023; first compound 0.01 µM
  relative viability: 1.04
NCI-H2023; first compound 0.03162 µM
  relative viability: 0.997
NCI-H2023; first compound 0.1 µM
  relative viability: 1
NCI-H2023; first compound 0.3162 µM
  relative viability: 1.04
NCI-H2023; first compound 1 µM
  relative viability: 0.823
NCI-H2085; first compound 0.01 µM
  relative viability: 1.08
NCI-H2085; first compound 0.03162 µM
  relative viability: 1.22
NCI-H2085; first compound 0.1 µM
  relative viability: 1.33
NCI-H2085; first compound 0.3162 µM
  relative viability: 1.22
NCI-H2085; first compound 1 µM
  relative viability: 1.06
NCI-H2087; first compound 0.01 µM
  relative viability: 1.15
NCI-H2087; first compound 0.03162 µM
  relative viability: 1.12
NCI-H2087; first compound 0.1 µM
  relative viability: 1.35
NCI-H2087; first compound 0.3162 µM
  relative viability: 1.23
NCI-H2087; first compound 1 µM
  relative viability: 0.986
NCI-H2405; first compound 0.01 µM
  relative viability: 0.707
NCI-H2405; first compound 0.03162 µM
  relative viability: 0.772
NCI-H2405; first compound 0.1 µM
  relative viability: 0.853
NCI-H2405; first compound 0.3162 µM
  relative viability: 0.901
NCI-H2405; first compound 1 µM
  relative viability: 0.789
NCI-H520; first compound 0.01 µM
  relative viability: 1.08
NCI-H520; first compound 0.03162 µM
  relative viability: 1.08
NCI-H520; first compound 0.1 µM
  relative viability: 1.31
NCI-H520; first compound 0.3162 µM
  relative viability: 1.09
NCI-H520; first compound 1 µM
  relative viability: 0.419
NCI-H838; first compound 0.01 µM
  relative viability: 1.18
NCI-H838; first compound 0.03162 µM
  relative viability: 1.12
NCI-H838; first compound 0.1 µM
  relative viability: 1.44
NCI-H838; first compound 0.3162 µM
  relative viability: 1.07
NCI-H838; first compound 1 µM
  relative viability: 0.809
SK-MES-1; first compound 0.01 µM
  relative viability: 1.27
SK-MES-1; first compound 0.03162 µM
  relative viability: 1.37
SK-MES-1; first compound 0.1 µM
  relative viability: 1.6
SK-MES-1; first compound 0.3162 µM
  relative viability: 1.36
SK-MES-1; first compound 1 µM
  relative viability: 1.22
